Experimental findings from ChEMBL document CHEMBL3243967, “Potential antitumor agents. 25. Azalogues of the 4'-(9-acridinylamino) methanesulfonanilides” (J Med Chem, 1977) are described below.

A short description of data set [1]: Toxicity in ip dosed mouse allografted with mouse L1210 cells administered qd from day 1 to 5 of challenge. The data set is classed as organism-based. Conditions: in vivo.
The nature of data set [2]: Lipophilic-hydrophilic balance, Rm of the compound by reversed-phase partition chromatography. The data set is classed as physicochemical.
The nature of data set [3]: Ionization constant, pKa of the compound in 20% DMF-buffer mixture by UV spectrophotometry. The data set is classed as physicochemical.
Data set [4] has as its system L1210. Description: Antitumor activity against mouse L1210 cells allografted in ip dosed mouse assessed as dose required for maximum increase in life span administered qd from day 1 to 5 of challenge. The data set is classed as functional.
Data set [5] concerns L1210. Description: Antitumor activity against mouse L1210 cells allografted in ip dosed mouse assessed as increase in life span at optimal dose administered qd from day 1 to 5 of challenge relative to control. It is filed as functional.
The nature of data set [6]: Ionization constant, pKa of the compound at pH 7.4. The data set is classed as physicochemical.

SMILES strings stand for the structures.

As usually defined, the pKa is the pH at which an ionisable group is half protonated. In turn, `CS(=O)(=O)Nc1ccc(Nc2c3ccccc3nc3cnccc23)cc1` had an MTD in data set [1] above 500 mg/kg. The compound also had a Rm in data set [2] of -0.33. The pKa in data set [3] turned out to be 5.32.

In data set [1], `CS(=O)(=O)Nc1ccc(Nc2c3ccccc3nc3ncccc23)cc1` returned an MTD above 500 mg/kg. Moreover, the Rm in data set [2] is given as -0.27. Further, in data set [3], the pKa came out at 5.93.

`CS(=O)(=O)Nc1ccc(Nc2c3ccccc3nc3c([N+](=O)[O-])cccc23)cc1`: the MTD in data set [1] was above 500 mg/kg. Also, the Rm in data set [2] is on record as -0.17. Moreover, the pKa in data set [3] was found to be 4.88.

In turn, `COc1cc(Nc2c3ccccc3nc3cnccc23)ccc1NS(C)(=O)=O` yielded a Rm in data set [2] of -0.13. In addition, in the data set on L1210 [4], the Activity stood at 90 mg/kg. Besides, the “Increase in life span” value in the data set with L1210 [5] is listed as 88%. For the same compound, the pKa in data set [3] is 5.53.

`COc1cc(Nc2c3ccccc3nc3ccncc23)ccc1NS(C)(=O)=O` came in with an MTD in data set [1] of 500 mg/kg. In addition, the Rm in data set [2] is listed as -0.25. Also, the pKa in data set [3] stood at 5.84.

Compound `COc1cc(Nc2c3ccccc3nc3cccc([N+](=O)[O-])c23)ccc1NS(C)(=O)=O` yielded a Rm in data set [2] of -0.01. Besides, in the data set with L1210 [4], the Activity was determined as 180 mg/kg. Moreover, in the data set on L1210 [5], the “Increase in life span” value is recorded as 44%. In addition, the pKa in data set [3] is 4.98.

For `CS(=O)(=O)Nc1ccc(Nc2c3ccccc3nc3ccc([N+](=O)[O-])cc23)cc1`, in data set [2], the Rm is -0.21. For the same compound, in the data set with L1210 [4], the Activity worked out at 250 mg/kg. In the data set with L1210 [5], the “Increase in life span” value came to 27%. For the same compound, in data set [3], the pKa came out at 5.42.

`CS(=O)(=O)Nc1ccc(Nc2c3ccccc3nc3ccc(N)cc23)cc1` had a Rm in data set [2] of -0.31. Moreover, the Activity with L1210 [4] was determined as 25 mg/kg. The “Increase in life span” value in the data set on L1210 [5] stood at 78%. Also, the pKa in data set [3] was 7.15.

In turn, `CS(=O)(=O)Nc1ccc(Nc2c3ccccc3nc3cccnc23)cc1` returned an MTD in data set [1] above 500 mg/kg. Also, the Rm in data set [2] is listed as -0.56. The pKa in data set [3] was found to be 6.9.

Turning to `CS(=O)(=O)Nc1ccc(Nc2c3ccccc3nc3ccccc23)cc1`, the Rm in data set [2] worked out at 0. Besides, the Activity with L1210 [4] amounted to 45 mg/kg. For the same compound, the “Increase in life span” value with L1210 [5] is on record as 107%.

In data set [1], `CS(=O)(=O)Nc1ccc(Nc2c3ccccc3nc3cccc([N+](=O)[O-])c23)cc1` yielded an MTD of 75 mg/kg. This compound also came in with a Rm in data set [2] of -0.09. For the same compound, the pKa in data set [3] is 4.79.

Consider `COc1cc(Nc2c3ccccc3nc3ccc([N+](=O)[O-])cc23)ccc1NS(C)(=O)=O`, for which the MTD in data set [1] was above 500 mg/kg. In addition, the Rm in data set [2] was -0.06. In data set [3], the pKa turned out to be 5.63.

For the compound `CS(=O)(=O)Nc1ccc(Nc2c3ccccc3nc3cc(N)ccc23)cc1`, in data set [2], the Rm was -0.17. Moreover, the Activity in the data set on L1210 [4] came out at 2.5 mg/kg. In addition, the “Increase in life span” value with L1210 [5] amounted to 81%. Besides, in data set [3], the pKa was found to be 9.8.

The compound `CS(=O)(=O)Nc1ccc(Nc2c3ccccc3nc3cc([N+](=O)[O-])ccc23)cc1` gave a Rm in data set [2] of -0.17. The Activity with L1210 [4] amounted to 25 mg/kg. Also, in the data set on L1210 [5], the “Increase in life span” value is reported as 123%. The pKa in data set [3] was 5.52.

Consider `CS(=O)(=O)Nc1ccc(Nc2c3ccc([N+](=O)[O-])cc3nc3cc([N+](=O)[O-])ccc23)cc1`, for which, in data set [6], the pKa worked out at 3.68.

Turning to `CS(=O)(=O)Nc1ccc(Nc2c3ccccc3nc3ccncc23)cc1`, the MTD in data set [1] was above 500 mg/kg. This compound came in with a Rm in data set [2] of -0.39. The pKa in data set [3] is 5.73.

`COc1cc(Nc2c3ccccc3nc3ncccc23)ccc1NS(C)(=O)=O` registered a Rm in data set [2] of -0.07. For the same compound, the Activity with L1210 [4] came to 62 mg/kg. Besides, in the data set with L1210 [5], the “Increase in life span” value was determined as 89%. The pKa in data set [3] was determined as 6.09.

`COc1cc(Nc2c3ccccc3nc3c([N+](=O)[O-])cccc23)ccc1NS(C)(=O)=O` returned a Rm in data set [2] of 0.09. In the data set with L1210 [4], the Activity amounted to 75 mg/kg. Further, the “Increase in life span” value in the data set on L1210 [5] was found to be 38%. For the same compound, in data set [3], the pKa came to 5.05.

The compound `COc1cc(Nc2c3ccccc3nc3cc([N+](=O)[O-])ccc23)ccc1NS(C)(=O)=O` came in with a Rm in data set [2] of 0.11. Also, in the data set with L1210 [4], the Activity was 4.5 mg/kg. Also, the “Increase in life span” value with L1210 [5] was found to be 84%. Also, in data set [3], the pKa came to 5.72.

For `COc1cc(Nc2c3ccccc3nc3cccnc23)ccc1NS(C)(=O)=O`, the MTD in data set [1] is 220 mg/kg. The compound further had a Rm in data set [2] of -0.39. Besides, in data set [3], the pKa turned out to be 7.19.
